Reference: patent publication US11319305B2, “Pyrimidine sulfamide derivative and preparation method and medical application thereof” (SHIJIAZHUANG SAGACITY NEW DRUG DEVELOPMENT CO., LTD., priority 2017, dated 2022)

Legend:
[1] = molecular target: T1, Human Pregnane X Receptor (PXR) (Homo sapiens, UniProt O75469); test: Human pregnane X receptor (PXR) assay, induction of PXR-mediated CYP3A expression in DPX2 cells; type: cell-based
T1 construct: host or cells: DPX2 cells
T1 sequence (O75469 1-434): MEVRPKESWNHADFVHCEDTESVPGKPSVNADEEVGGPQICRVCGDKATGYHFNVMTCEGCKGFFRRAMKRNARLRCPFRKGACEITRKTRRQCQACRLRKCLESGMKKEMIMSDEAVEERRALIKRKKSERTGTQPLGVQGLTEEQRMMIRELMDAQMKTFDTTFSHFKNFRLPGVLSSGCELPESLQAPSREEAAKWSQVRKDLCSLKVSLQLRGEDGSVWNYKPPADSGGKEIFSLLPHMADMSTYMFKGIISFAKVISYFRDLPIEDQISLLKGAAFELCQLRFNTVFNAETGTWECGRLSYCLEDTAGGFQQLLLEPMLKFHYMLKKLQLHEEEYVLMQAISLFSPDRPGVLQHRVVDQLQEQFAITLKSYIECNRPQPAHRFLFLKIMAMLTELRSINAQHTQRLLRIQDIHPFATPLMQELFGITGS
Method: Experimental Embodiment 3: Human Pregnane X Receptor (PXR) Assay
The effect of the compounds on the induction of PXR-mediated CYP3A expression was evaluated.
1. DPX2 cells were thawn under sterile conditions.
2. DPX2 cell solution was distributed in 96-well plate (100 μL/well), and the plate was placed in a 5% CO2/37° C. incubator overnight.
3. Quantitative feeding medium was thawn in a 37° C. water bath. Positive control rifampin was thawn at room temperature. A series of test compounds and positive control dilutions were prepared in quantitative feeding medium. The cells were carefully aspirated from each wells without disturbing the cells during aspiration and the medium was discarded. 100 μL of each test compound concentration was transferred to pre-labeled wells. The operation of the positive control group and the blank group were the same. The plate was placed back into the incubator for 24 hours exposure.
(1) 7 μL of Luciferin-IPA was added to […] feeding medium, the mixture was mixed by inverting, and poured into a Luciferin-IPA reagent tank.
(2) The 96-well plate was taken out from the incubator, and the media was carefully aspirated from each wells. 50 μL of the Luciferin-IPA reagent was added to each wells, and the cell plate was placed back into the incubator for 60 minutes.
(3) During incubation, the P450-Glo buffer was poured into the Luciferin detection reagent, and the mixture was mixed by inverting.
(4) The 96-well plate was taken out from the incubator, and 40 μL of solution from each well was transferred into the corresponding white 96-well plate, and the corresponding position of each wells was consistent with the original cell plate. […]
(8) After incubation with Luciferin detection reagent for 20 minutes, a photometer (set 1-5 seconds. Readout Time) was used to measure the luminescence of each wells of the white 96-well plate. […]
(10) After incubating for 60 minutes at 37° C., the original 96-well plate was taken out of the incubator. The reader was set to the fluorescence mode, the excitation wavelength was set to 380-400 nm, the emission wavelength was set to 505 nm, and the fluorescence intensity of each wells was measured.
(11) The cell plate was taken out of the enzyme reader, and 100 μL of ONE-Glo™ detection reagent was added to each wells. […]
(12) The enzyme reader was set to 5 seconds for pre-shaking and 5 seconds for wells reading, and the fluorescence intensity in each hole was measured. […]
The positive control was rifampicin, six concentrations were tested in each experiment. The data was analyzed using Prism to generate a concentration-response curve and the EC50 value of the compound was calculated.

CYP1A2 = molecular target: T2, CYP1A2 (Homo sapiens, UniProt P05177); test: Human liver microsomal cytochrome P450 isozyme inhibition assay, CYP1A2; type: in vitro ADME; details: human liver microsomes
T2 construct: Mixed human liver microsomes (HLM) were purchased from Corning Inc; tissue Corning Inc; host or cells: pooled human liver microsomes
T2 sequence (P05177 1-516): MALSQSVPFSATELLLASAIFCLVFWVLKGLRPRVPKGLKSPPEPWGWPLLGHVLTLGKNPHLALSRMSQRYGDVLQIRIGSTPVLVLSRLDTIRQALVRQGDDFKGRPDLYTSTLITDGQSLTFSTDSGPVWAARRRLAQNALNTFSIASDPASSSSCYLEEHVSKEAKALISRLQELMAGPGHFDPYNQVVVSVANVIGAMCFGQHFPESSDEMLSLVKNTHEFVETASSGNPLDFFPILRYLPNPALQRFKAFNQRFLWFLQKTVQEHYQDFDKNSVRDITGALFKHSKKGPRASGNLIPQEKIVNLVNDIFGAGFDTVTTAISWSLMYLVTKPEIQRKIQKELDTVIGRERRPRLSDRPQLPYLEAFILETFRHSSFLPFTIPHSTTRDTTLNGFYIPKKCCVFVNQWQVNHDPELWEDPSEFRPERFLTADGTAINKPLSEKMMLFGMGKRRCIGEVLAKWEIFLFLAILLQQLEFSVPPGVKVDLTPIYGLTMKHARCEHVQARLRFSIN
Method: (§1) Experimental Embodiment 4: Human Liver Microsomal Cytochrome P450 Isozyme Inhibition Assay The purpose of the assay was to evaluate the inhibitory activity of the samples against human liver microsomal cytochrome P450 isozyme (CYP1A2, CYP2C9, CYP2C19, CYP2D6 and CYP3A4) using the 5-in-1 probe substrate of the CYP isozyme. Mixed human liver microsomes (HLM) were purchased from Corning Inc. (Steuben, N.Y., USA) and stored below −80° C. before use. The test compound working solution which has been diluted into serial concentrations was added to an incubation system containing human liver microsomes, probe substrates and circulating system cofactors, and a control containing solvent without the test compound was used as the enzyme activity control (100%). The concentration of the metabolite produced by the probe substrate in the sample was determined using a liquid chromatography-tandem mass spectrometry (LC-MS/MS) method. Nonlinear regression analysis was performed on the average percent activity versus concentration of subjects using SigmaPlot (V.11). The IC50 value was calculated by a three-parameter or four-parameter inverse-logarithmic equation.

CYP2C9 = molecular target: T3, CYP2C9 (Homo sapiens, UniProt P11712); test: Human liver microsomal cytochrome P450 isozyme inhibition assay, CYP2C9; type: in vitro ADME; details: human liver microsomes
T3 construct: Mixed human liver microsomes (HLM) were purchased from Corning Inc; tissue Corning Inc; host or cells: pooled human liver microsomes
Method: as §1

CYP2C19 = molecular target: T4, CYP2C19 (Homo sapiens, UniProt P33261); test: Human liver microsomal cytochrome P450 isozyme inhibition assay, CYP2C19; type: in vitro ADME; details: human liver microsomes
T4 construct: Mixed human liver microsomes (HLM) were purchased from Corning Inc; tissue Corning Inc; host or cells: pooled human liver microsomes
Method: as §1

CYP2D6 = molecular target: T5, CYP2D6 (Homo sapiens, UniProt P10635); test: Human liver microsomal cytochrome P450 isozyme inhibition assay, CYP2D6; type: in vitro ADME; details: human liver microsomes
T5 construct: Mixed human liver microsomes (HLM) were purchased from Corning Inc; tissue Corning Inc; host or cells: pooled human liver microsomes
Method: as §1

CYP3A4 = molecular target: T6, CYP3A4 (Homo sapiens, UniProt P08684); test: Human liver microsomal cytochrome P450 isozyme inhibition assay, CYP3A4; type: in vitro ADME; details: human liver microsomes
T6 construct: Mixed human liver microsomes (HLM) were purchased from Corning Inc; tissue Corning Inc; host or cells: pooled human liver microsomes
Method: as §1

[2] = molecular target: T7, bile salt transport pump (BSEP) (Homo sapiens, UniProt O95342); test: Inhibition test on bile salt transfer pump (BSEP), taurocholic acid uptake in BSEP-Hi5-VT vesicles; type: in vitro ADME
T7 construct: purchased Solvo Biotechnology SB-BSEP-Hi5-VT; host or cells: Hi5 insect cells (read from the product name; own knowledge)
Method: Prepared with buffer A, 8.16 mM ATP and 4.08 μM taurocholic acid were contained in 12 mL buffer A.
Prepared with buffer A, 8.16 mM AMP, 4.08 μM taurocholic acid 12 mL buffer A were contained in buffer A.
A solution containing BSEP-Hi5-VT 5 μg/μL was prepared with buffer A.
The compound was diluted to 100 mM with DMSO; then serially diluted 3-fold for an 11-point dilution; the minimum concentration was 0.169 μM.
Positive reference Glyburide was diluted to 20 mM with DMSO; then serially diluted 2-fold for an 11-point dilution; the minimum concentration was 19.5
0.3 μL of a solution of the compound in DMSO or a diluted DMSO solution were transferred into corresponding wells of the compound plate using ECHO, respectively.
14.7 μL of ATP buffer was added to the compound and the corresponding wells of zero percent effect (ZPE), respectively.
14.7 μL of AMP buffer was added to the corresponding wells of 100% effect (HPE), respectively.
The plate was shaked for 10 minutes at 25° C.
15 μL of BSEP-H15-VT Vesicle solution was added to all wells, respectively, and the plate was shaked for another 40 minutes at 25° C.
6.5 μL 0.5 M ethylenediaminetetraacetic acid (EDTA) solution was added to all wells immediately, followed by addition of 65 μL of buffer B, and the whole reaction was completed.
7.95 μL of liquid was transferred to the filter plate from the compound plate at the end of the reaction using an instrument.
After placing the liquid receiving plate under the filter plate, the liquid was removed using a centrifuge and the receiving plate liquid was discarded.
9.90 μL of buffer B was added to the filter plate. After placing the liquid receiving plate under the filter plate, the liquid was removed using a centrifuge, and the receiving plate liquid was discarded, and filter plate was washed for three times in total.
The filter plate was dried overnight.
On the next day, 80 μL of methanol/water (80/20, volume ratio) solution was added to the filter plate.
The plate was shaked for 15 minutes after the filter plate was attached to the membrane.
A new liquid receiving plate was placed under the filter plate, and the filter plate was centrifuged for 5 minutes, and all liquids in the filter plate were filtrated into the receiving plate.
15 μL of internal standard solution was added to each wells in the liquid receiving plate, and the plate was sealed with a membrane.
The content of taurocholic acid in the receiving plate was detected using LC/MS/MS.
Several concentrations were tested in each experiments. The data were analyzed using Prism to generate a concentration-response curve, and IC50 values of the compounds were calculated.

[3] = test system: human liver microsomal cytochrome P450 isozyme (CYP1A2, CYP2C9, CYP2C19, CYP2D6 and CYP3A4); test: Human liver microsomal cytochrome P450 isozyme inhibition assay, summary over the main isozymes; type: in vitro ADME; details: human liver microsomes
Method: as §1

T3 sequence (P11712 whole entry): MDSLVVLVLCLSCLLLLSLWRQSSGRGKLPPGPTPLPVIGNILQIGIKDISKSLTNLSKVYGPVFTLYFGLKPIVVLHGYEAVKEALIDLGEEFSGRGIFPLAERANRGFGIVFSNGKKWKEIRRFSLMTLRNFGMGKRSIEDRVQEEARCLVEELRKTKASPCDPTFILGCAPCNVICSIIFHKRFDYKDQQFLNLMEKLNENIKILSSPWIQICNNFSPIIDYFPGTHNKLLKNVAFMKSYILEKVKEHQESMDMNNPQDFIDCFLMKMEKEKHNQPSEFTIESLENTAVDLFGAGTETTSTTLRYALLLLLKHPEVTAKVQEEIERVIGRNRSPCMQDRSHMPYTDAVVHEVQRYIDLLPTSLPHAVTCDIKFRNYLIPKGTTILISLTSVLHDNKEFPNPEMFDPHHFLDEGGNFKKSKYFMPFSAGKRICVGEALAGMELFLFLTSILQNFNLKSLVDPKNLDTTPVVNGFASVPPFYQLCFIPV
T7 sequence (O95342 whole entry): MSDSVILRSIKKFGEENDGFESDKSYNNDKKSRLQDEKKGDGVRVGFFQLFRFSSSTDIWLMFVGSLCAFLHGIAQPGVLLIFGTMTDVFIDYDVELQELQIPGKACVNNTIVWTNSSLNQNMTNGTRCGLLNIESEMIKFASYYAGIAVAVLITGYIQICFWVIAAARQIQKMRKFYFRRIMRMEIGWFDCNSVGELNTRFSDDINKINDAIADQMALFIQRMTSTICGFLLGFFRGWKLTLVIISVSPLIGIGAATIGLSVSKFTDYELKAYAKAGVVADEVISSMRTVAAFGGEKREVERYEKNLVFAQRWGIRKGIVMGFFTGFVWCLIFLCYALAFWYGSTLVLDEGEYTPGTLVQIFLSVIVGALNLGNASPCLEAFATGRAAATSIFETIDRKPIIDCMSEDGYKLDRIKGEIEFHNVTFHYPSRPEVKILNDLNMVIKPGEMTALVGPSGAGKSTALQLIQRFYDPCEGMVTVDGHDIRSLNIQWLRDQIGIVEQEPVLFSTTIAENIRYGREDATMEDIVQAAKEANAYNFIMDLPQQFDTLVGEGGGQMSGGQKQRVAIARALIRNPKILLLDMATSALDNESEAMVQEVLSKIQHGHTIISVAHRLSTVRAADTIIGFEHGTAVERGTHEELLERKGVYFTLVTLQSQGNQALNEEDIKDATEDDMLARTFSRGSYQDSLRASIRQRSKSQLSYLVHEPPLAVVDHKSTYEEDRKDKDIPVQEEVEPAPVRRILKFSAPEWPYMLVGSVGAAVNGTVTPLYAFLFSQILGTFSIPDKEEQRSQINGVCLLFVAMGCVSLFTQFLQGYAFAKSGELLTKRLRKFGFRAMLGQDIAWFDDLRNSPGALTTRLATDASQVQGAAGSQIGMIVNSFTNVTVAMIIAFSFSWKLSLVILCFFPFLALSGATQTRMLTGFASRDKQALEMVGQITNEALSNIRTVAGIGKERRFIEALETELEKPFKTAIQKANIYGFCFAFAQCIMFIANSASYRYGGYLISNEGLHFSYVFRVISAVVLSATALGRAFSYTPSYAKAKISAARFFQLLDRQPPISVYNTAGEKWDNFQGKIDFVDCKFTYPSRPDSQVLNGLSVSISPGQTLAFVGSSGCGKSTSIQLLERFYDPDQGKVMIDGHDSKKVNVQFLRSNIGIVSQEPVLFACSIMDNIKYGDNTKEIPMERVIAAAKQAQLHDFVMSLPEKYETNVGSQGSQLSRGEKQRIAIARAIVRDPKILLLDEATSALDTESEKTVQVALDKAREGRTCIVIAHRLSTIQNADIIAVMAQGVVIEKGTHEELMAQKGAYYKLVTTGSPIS
T5 sequence (P10635 whole entry): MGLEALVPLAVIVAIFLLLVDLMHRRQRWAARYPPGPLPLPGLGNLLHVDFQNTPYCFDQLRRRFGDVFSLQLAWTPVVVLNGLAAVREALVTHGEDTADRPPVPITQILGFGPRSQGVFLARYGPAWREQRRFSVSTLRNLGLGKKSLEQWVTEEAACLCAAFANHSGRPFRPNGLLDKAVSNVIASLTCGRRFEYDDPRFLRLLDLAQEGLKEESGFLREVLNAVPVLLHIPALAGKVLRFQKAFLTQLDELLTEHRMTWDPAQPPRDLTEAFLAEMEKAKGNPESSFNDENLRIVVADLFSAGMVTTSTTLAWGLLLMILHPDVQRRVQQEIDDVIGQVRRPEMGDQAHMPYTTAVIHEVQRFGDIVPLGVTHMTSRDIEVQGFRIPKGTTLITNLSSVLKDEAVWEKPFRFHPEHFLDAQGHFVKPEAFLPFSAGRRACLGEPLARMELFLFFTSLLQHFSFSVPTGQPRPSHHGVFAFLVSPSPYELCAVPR
T6 sequence (P08684 whole entry): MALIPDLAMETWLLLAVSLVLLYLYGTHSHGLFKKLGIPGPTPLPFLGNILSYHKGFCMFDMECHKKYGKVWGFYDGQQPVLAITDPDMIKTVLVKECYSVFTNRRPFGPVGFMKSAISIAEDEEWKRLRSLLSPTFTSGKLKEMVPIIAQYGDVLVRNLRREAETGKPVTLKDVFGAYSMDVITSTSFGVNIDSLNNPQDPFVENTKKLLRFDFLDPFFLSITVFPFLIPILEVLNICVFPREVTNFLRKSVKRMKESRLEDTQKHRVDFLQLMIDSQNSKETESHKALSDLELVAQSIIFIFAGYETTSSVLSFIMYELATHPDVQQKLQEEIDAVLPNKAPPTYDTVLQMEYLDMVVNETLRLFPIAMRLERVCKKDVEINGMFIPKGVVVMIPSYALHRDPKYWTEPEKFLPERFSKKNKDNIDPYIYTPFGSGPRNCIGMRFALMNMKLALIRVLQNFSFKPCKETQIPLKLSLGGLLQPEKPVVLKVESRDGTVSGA
T4 sequence (P33261 whole entry): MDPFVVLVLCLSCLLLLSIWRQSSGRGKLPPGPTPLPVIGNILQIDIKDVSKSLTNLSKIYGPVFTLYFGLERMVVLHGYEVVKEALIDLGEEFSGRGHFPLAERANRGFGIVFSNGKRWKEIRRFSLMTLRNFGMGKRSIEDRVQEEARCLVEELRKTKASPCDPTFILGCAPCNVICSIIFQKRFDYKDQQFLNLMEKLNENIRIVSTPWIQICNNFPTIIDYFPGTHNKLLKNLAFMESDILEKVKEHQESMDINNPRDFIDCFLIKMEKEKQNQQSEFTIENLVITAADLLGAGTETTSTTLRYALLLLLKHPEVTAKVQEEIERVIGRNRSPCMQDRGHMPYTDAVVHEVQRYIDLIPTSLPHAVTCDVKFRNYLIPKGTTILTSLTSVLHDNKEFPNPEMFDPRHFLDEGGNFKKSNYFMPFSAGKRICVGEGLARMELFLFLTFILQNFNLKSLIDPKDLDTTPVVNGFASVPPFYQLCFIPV

induction effect on PXR-mediated CYP3A expression (in words) [1]: relatively strong induction effect
EC50 ([1]; DPX2 cells, 24 hours exposure, ± is calculation error of simulation curve, read-out: EC50, induction effect on PXR-mediated CYP3A expression): 6.34 ± 0.17 µM
IC50 (CYP1A2): 37 µM
IC50 (CYP2C9): 7.5 µM
inhibitory effects on the isozymes CYP2C9 (in words) (CYP2C9): moderate
IC50 (CYP2C19): 31 µM
IC50 (CYP2D6): > 50 µM
IC50 (CYP3A4): 23 µM
inhibitory effects on four main isozymes of CYP (in words) [3]: weak
Compound: CCCNS(=O)(=O)Nc1ncnc(OCCOc2ncc(Br)cn2)c1-c1ccc(Br)cc1 [macitentan, reference compound]
inhibitory effect on the bile salt transport pump (BSEP) (in words) [2]: strong
IC50 ([2]; substrate taurocholic acid, read-out: IC50, inhibitory effect on the bile salt transport pump (BSEP)): 0.281 µM
